“Also recorded” adds a separate entry of the source.
What was measured:
[1] = tested on: human medullary thyroid carcinoma cells; test: Confocal distribution of Cy3-labeled Tetrac vs Tetrac NP; format: cell-based; settings: around 2 h
Source text: Penicillin streptomycin (1%) was present in both culture media.

GL261 cells [2] = test: GL261 cell multiplicity after Tetrac exposure; format: cell-based, murine; settings: one hour exposure to Tetrac
Procedure: Cell multiplicity (CM) was determined from Giemsa stained slides by counting the number of cells per microcolony under 20× magnification. At least 400 microcolonies were counted.
The length of time that Tetrac biologically affected GL261 cells was also determined. To do this, the multiplicity relationship defined above was utilized. Tetrac was added to cells one hour prior to the determination of the multiplicity. After the exposure of exponentially growing GL261 cells to Tetrac, the Tetrac containing medium was removed from GL261 cells, which contained an unknown residual and fresh medium (without Tetrac) was added. As a function of time (i.e., 0, 1, 2, 3, 4, 6, 8, and 10 hours, and 1-6 days), the cells, containing an unknown residual amount of remaining Tetrac, were then processed for determination of the multiplicity index (i.e. the number of cells per microcolony).

human MTC cells = test: RNA microarray of h-MTC cells; format: cell-based
Procedure: Technical aspects of microarray studies, stringent quality control of microarray studies and statistic analysis of gene expression were as described previously. […] In brief, the array hybridization and processing, data retrieval and the analysis were carried out with standard sets of Affymetrix (Santa Clara, Calif.) equipment, software and protocols in an Affymetrix microarray core facility. RNA was extracted from cell cultures of two independent biological replicates of each experimental condition and analyzed for sample purity and integrity, using BioAnalyzer instrumentation (Agilent, Santa Clara, Calif.). Expression analysis of 54,675 transcripts was conducted for each sample, using Affymetrix HG-U133A Plus 2.0 arrays. Data retrieval and analysis was completed by MAS5.0 software. Concordant changes of gene expression for each experimental condition were determined at the statistical threshold P value, <0.01 (two-tailed t test).

MCF7 and MCF7/R cells = test: Intracellular accumulation of radiolabeled doxorubicin; format: cell-based; settings: 24 hours, presence vs absence of Tetrac
Procedure: FIG. 15A is a Western blofshowing the expression of P-gp, GST and SOD in wild type (W) drug sensitive and resistant (R) MCF7 cells. […] The cells were treated for 24 h with each drug alone or the combination of both, after that, expression of drug resistance molecules was determined by Western blot using specific antibodies. […] The cells were incubated for 24 hours with doxorubicin in the absence or the presence of Tetrac, after that they were washed and then solubilized. Radioactivity associated with the cell lysates was counted and compared between the two cell lines either treated or not with Tetrac. The data represent an average of 3 determinations±SE.

GL261 cells [3] = test: GL261 apoptosis and necrosis with or without 5 Gy x-rays; format: cell-based, murine; settings: Tetrac 2 μM, T-NP 0.2 μM
Procedure: Apoptotic cells were identified using TUNEL staining (Terminal deoxynucleotidyl transferase dUTP nick end labeling (TUNEL)) (staining kit obtained from Oncor, Gaithersberg, Md.; ApoTag) (See Gavrieli et al., J. Cell. Biol. 1992. 119:493-501). The staining procedures were carried out as instructed by the manufacturer. Gill's hematoxylin was used as a counterstain to discriminate negative cells (purple) from positive cells (brown). Negative controls were performed by omitting the terminal deoxynucleotidyl transferase enzyme. Positive controls were performed by incubating cells with Dnase I (3000 U/ml) in 50 mM Tris-HCl, pH 7.5, in 1 mg/ml bovine serum albumin (BSA) for 10 min at ambient temperature.
To perform FCM, a total of 10^6 adherent cells were trypsinized and washed once in ambient temperature PBS. They were then fixed in 70% ethanol, and stored overnight, at 4° C. […] Cells were left overnight at 4° C. in the dark and were then analyzed on a Coulter fluorescence-activated cell sorter (Coulter Electronics, Hialeah, Fla.). Cells were excited with a single 488 nm argon laser and the resulting fluorescence was detected using a 585 nm filter. Linear red-orange fluorescence (FL3) data were collected in list format and 10,000 events were collected. The distribution of cells within the cell cycle (sub-G1, G1, S, and G2+M phases) was determined using a Coulter software program.

MDA-MB-231 cells = test: RNA microarray of MDA-MB-231 cells; format: cell-based, human
Procedure: MDA-MB-231 cells were maintained in DMEM that was supplemented with 10% FBS in a 5% CO2/95% 02 air incubator at 37° C. For two days prior to exposure to Tetrac and nanoparticulate Tetrac, cells were maintained in 0.25% FBS that was stripped of estrogen and thyroid hormone. (See Lin et al., Biochemistry 42: 7571-7579 (2003)).
Microarray analysis experiments were conducted as described previously. (See Glinsky et al., J Clin Invest 115: 1503-1521 (2005); Glinsky et al., J Clin Invest 113: 913-923 (2004); Glinsky et al., Clin Cancer Res 10: 2272-2283 (2004); and Glinsky et al., Mol Carcinog 37: 209-221 (2003)). […] Sample purity and integrity were verified with an Agilent BioAnalyzer (Santa Clara, Calif.). Expression analysis of 54,675 transcripts for each sample was by Affymetrix HG-U133A Plus 2.0 arrays. MAS5.0 software was used for data retrieval and analysis and concordant changes of gene expression in response to unmodified Tetrac and nanoparticulate Tetrac were defined by two-tailed t test at a threshold p value<0.01.
Expression of ˜54,000 transcripts was analyzed in control and drug-treated cultures, using Affymetrix Human Genome U133 plus 2.0 microarrays. Subsequent analysis was focused on genes affected by treatment at p<0.01. There was 93% concordance between Tetrac and Tetrac NP in terms of genes affected; notable disparities included downregulation of epidermal growth factor receptor (EGFR) by Tetrac NP and no affect of unmodified Tetrac on this gene.

SMILES: O=C(O)Cc1cc(I)c(Oc2cc(I)c(O)c(I)c2)c(I)c1 [Tetrac, tetraiodothyroacetic acid]
- distribution within h-MTC cells (in words) [1]: distributed in the cytoplasm
- time for a 50% return of the cell multiplicity factor towards control (GL261 cells [2]): approximately 2.5 days
- time post Tetrac treatment at which the decrease in the CM factor was at 50% (GL261 cells [2]): 60 h
- expression of VEGFA (in words) (human MTC cells): significantly decreased
- expression of genes associated with induction of apoptosis: CASP2, DFFA, FAF1, CASP8AP2 (in words) (human MTC cells): caused expression
- expression of thrombospondin (THBS1) gene (in words) (human MTC cells): increase
- intracellular accumulation of radiolabeled doxorubicin (in words) (MCF7 and MCF7/R cells): increased significantly
- effect on necrosis, necrotic percentage at 120 hours (in words) (GL261 cells [3]): essentially additive
- effect plus 5 Gy of x-rays on apoptosis (in words) (GL261 cells [3]): supra-additive
- Change: BCL2L14 (MDA-MB-231 cells): not a significant stimulatory action and ↑
- Change: CASP2, Caspase 2 (MDA-MB-231 cells): not a significant stimulatory action and ↑
- Change: CBY1, Catenin inhibitor (MDA-MB-231 cells): significantly increased and induced and ↑
- Change: CDKN2C, Cyclin-dependent kinase inhibitor (MDA-MB-231 cells): ↑
- Change: CTNNA1, Catenin (MDA-MB-231 cells): ↓
- Change: CTNNA2, Catenin (MDA-MB-231 cells): ↓
- Change: CTSL1, Cathepsin 1 (MDA-MB-231 cells): ↓
- Change: CXCL10, Anti-endothelial cell chemokine (MDA-MB-231 cells): ↑
- Change: Cyclins, Cell cycle regulators (MDA-MB-231 cells): ↓
- Change: EDN1, Endothelin-1 (MDA-MB-231 cells): ↑
- Change: Interleukins, Inflammatory cytokines (MDA-MB-231 cells): ↓
- Change: MCL1, Myeloid cell leukemia-1 (MDA-MB-231 cells): did not significantly affect and ↓
- Change: NR1D1, Nuclear receptor Rev-erbα (MDA-MB-231 cells): ↓
- Change: THBS1, Thrombospondin (MDA-MB-231 cells): strongly induced and ↑
- Change: XIAP, X-linked inhibitor of apoptosis protein (MDA-MB-231 cells): acted on XIAP and ↓
- expression of epidermal growth factor receptor (EGFR) (in words) (MDA-MB-231 cells): ineffective; also recorded: no affect
